Results published in patent US10307357B2, “Prebiotic oral care compositions containing an alkyl glycoside” (COLGATE-PALMOLIVE COMPANY, priority 2013, dated 2019).

Key:
Test in all cases: Twenty-four hour biofilm growth (crystal violet)
Format in all cases: cell-based
Details in all cases: 24 hours, control = 1
Prevotella intermedia = test system: Prevotella intermedia
Method: (§1) The increase in biofilm formation of the tested bacteria in response to selected glycosides (β-methyl-D-galactoside and α-methyl-D-galactoside) was investigated by setting up biofilm growth assays in a nutritionally rich medium (brain heart infusion broth (BHI), Oxoid), over 24 hours. Late exponential growth phase liquid cultures were prepared by transferring the respective bacterium from blood agar plates to BHI and overnight incubation at 37° C. in an anaerobic atmosphere for A. viscosus, V. parvula, P. gingivalis, P. intermedia, T. forsythia, A. naeslundii, and C. sputigena, and in a 5% CO2 environment for S. salivarius, S. sanguinis, S. mitis, A. actinomycetemcomitans, S. mutans, and S. gordonii. Overnight cultures were transferred to BHI and adjusted to a concentration of 1×10^7 CFU/ml by measuring the optical density at 600 nm (OD600) (BioRad SmartSpec 3000). For each strain, 200 μl of the bacterial suspension was added to a 96-well plate containing 20 μl of the respective glycosides. Final concentrations of the glycosides were set to 5, 10, 20 and 25 μmol/ml. […] Additionally, for each bacterium tested, a background control, to correct for background staining, was added. This background control contained the bacterium tested and 0.03 weight % chlorhexidine, as an antiseptic. Plates were incubated as previously described. After 24 hrs the supernatant was removed from the wells of the plates. The wells were washed twice with 1×100 μL PBS (phosphate buffered saline), fixed for 20 minutes with 96% vol. ethanol (96% vol. solution in water) and the biofilm retained at the bottom of the wells was stained with 1 weight % crystal violet (1 weight % solution in water). The bound dye was dissolved with 5% vol. acetic acid (5% vol. solution in water). Quantification of the stained biofilm was performed by measuring the absorbance at 630 nm using a Multiskan Ascent microplate reader (Thermo Scientific). […] The experiment was carried out on three different days (thus providing 3 biological replicas) and each day the experiment was carried out in quadruple (thus providing 4 technical replicas) for each combination of bacterium with glycoside and for each control. For each day and for each combination, the average (mean) of the values obtained (as detailed above) for the four technical replicas was calculated to provide a single value for each combination on each day. The values shown in Tables 7 to 8, below, are the average (mean) of the three single values obtained for each combination of bacterium with glycoside.

Streptococcus mutans = test system: Streptococcus mutans
Method: as §1

Porphyromonas gingivalis = test system: Porphyromonas gingivalis
Method: as §1

Streptococcus mitis = test system: Streptococcus mitis
Method: as §1

Actinomyces viscosus = test system: Actinomyces viscosus
Method: as §1

Capnocytophaga sputigena = test system: Capnocytophaga sputigena
Method: as §1

Streptococcus gordonii = test system: Streptococcus gordonii
Method: as §1

[1] = test system: Aggregatibacter actinomycetemcomitans
Method: as §1

Tannerella forsythia = test system: Tannerella forsythia
Method: as §1

Veillonella parvula = test system: Veillonella parvula
Method: as §1

Streptococcus sanguinis = test system: Streptococcus sanguinis
Method: as §1

Streptococcus salivarius = test system: Streptococcus salivarius
Method: as §1

Actinomyces naeslundii = test system: Actinomyces naeslundii
Method: as §1

CO[C@@H]1O[C@H](CO)[C@H](O)[C@H](O)[C@H]1O [β-methyl-D-galactoside]
biofilm OD 630 nm divided by control (biofilm growth) (Prevotella intermedia; 5 μmol/ml): 1.1201
biofilm OD 630 nm divided by control (biofilm growth) (Prevotella intermedia; 10 μmol/ml): 1.0925
biofilm OD 630 nm divided by control (biofilm growth) (Prevotella intermedia; 20 μmol/ml): 1.1229
biofilm OD 630 nm divided by control (biofilm growth) (Prevotella intermedia; 25 μmol/ml): 1.1007
biofilm OD 630 nm divided by control (biofilm growth) (Streptococcus mutans; 5 μmol/ml): 1.3512
biofilm OD 630 nm divided by control (biofilm growth) (Streptococcus mutans; 10 μmol/ml): 1.0007
biofilm OD 630 nm divided by control (biofilm growth) (Streptococcus mutans; 20 μmol/ml): 1.1097
biofilm OD 630 nm divided by control (biofilm growth) (Streptococcus mutans; 25 μmol/ml): 1.2791
biofilm OD 630 nm divided by control (biofilm growth) (Porphyromonas gingivalis; 5 μmol/ml): 0.9407
biofilm OD 630 nm divided by control (biofilm growth) (Porphyromonas gingivalis; 10 μmol/ml): 0.9326
biofilm OD 630 nm divided by control (biofilm growth) (Porphyromonas gingivalis; 20 μmol/ml): 0.9049
biofilm OD 630 nm divided by control (biofilm growth) (Porphyromonas gingivalis; 25 μmol/ml): 0.9163
biofilm OD 630 nm divided by control (biofilm growth) (Streptococcus mitis; 5 μmol/ml): 1.3127
biofilm OD 630 nm divided by control (biofilm growth) (Streptococcus mitis; 10 μmol/ml): 1.1242
biofilm OD 630 nm divided by control (biofilm growth) (Streptococcus mitis; 20 μmol/ml): 1.1524
biofilm OD 630 nm divided by control (biofilm growth) (Streptococcus mitis; 25 μmol/ml): 1.1692
biofilm OD 630 nm divided by control (biofilm growth) (Actinomyces viscosus; 5 μmol/ml): 0.5917
biofilm OD 630 nm divided by control (biofilm growth) (Actinomyces viscosus; 10 μmol/ml): 0.5767
biofilm OD 630 nm divided by control (biofilm growth) (Actinomyces viscosus; 20 μmol/ml): 0.6104
biofilm OD 630 nm divided by control (biofilm growth) (Actinomyces viscosus; 25 μmol/ml): 0.6322
biofilm OD 630 nm divided by control (biofilm growth) (Capnocytophaga sputigena; 5 μmol/ml): 0.7253
biofilm OD 630 nm divided by control (biofilm growth) (Capnocytophaga sputigena; 10 μmol/ml): 0.8100
biofilm OD 630 nm divided by control (biofilm growth) (Capnocytophaga sputigena; 20 μmol/ml): 0.8487
biofilm OD 630 nm divided by control (biofilm growth) (Capnocytophaga sputigena; 25 μmol/ml): 0.9428
biofilm OD 630 nm divided by control (biofilm growth) (Streptococcus gordonii; 5 μmol/ml): 0.7601
biofilm OD 630 nm divided by control (biofilm growth) (Streptococcus gordonii; 10 μmol/ml): 0.6695
biofilm OD 630 nm divided by control (biofilm growth) (Streptococcus gordonii; 20 μmol/ml): 0.6763
biofilm OD 630 nm divided by control (biofilm growth) (Streptococcus gordonii; 25 μmol/ml): 0.6429
biofilm OD 630 nm divided by control (biofilm growth) ([1]; 5 μmol/ml): 1.1108
biofilm OD 630 nm divided by control (biofilm growth) ([1]; 10 μmol/ml): 1.0188
biofilm OD 630 nm divided by control (biofilm growth) ([1]; 20 μmol/ml): 1.0927
biofilm OD 630 nm divided by control (biofilm growth) ([1]; 25 μmol/ml): 1.0212
biofilm OD 630 nm divided by control (biofilm growth) (Tannerella forsythia; 5 μmol/ml): 0.7494
biofilm OD 630 nm divided by control (biofilm growth) (Tannerella forsythia; 10 μmol/ml): 0.6979
biofilm OD 630 nm divided by control (biofilm growth) (Tannerella forsythia; 20 μmol/ml): 0.9049
biofilm OD 630 nm divided by control (biofilm growth) (Tannerella forsythia; 25 μmol/ml): 0.8051
biofilm OD 630 nm divided by control (biofilm growth) (Veillonella parvula; 5 μmol/ml): 1.0106
biofilm OD 630 nm divided by control (biofilm growth) (Veillonella parvula; 10 μmol/ml): 1.0266
biofilm OD 630 nm divided by control (biofilm growth) (Veillonella parvula; 20 μmol/ml): 1.0191
biofilm OD 630 nm divided by control (biofilm growth) (Veillonella parvula; 25 μmol/ml): 1.0384
biofilm OD 630 nm divided by control (biofilm growth) (Streptococcus sanguinis; 5 μmol/ml): 1.8586
biofilm OD 630 nm divided by control (biofilm growth) (Streptococcus sanguinis; 10 μmol/ml): 2.3853
biofilm OD 630 nm divided by control (biofilm growth) (Streptococcus sanguinis; 20 μmol/ml): 2.3700
biofilm OD 630 nm divided by control (biofilm growth) (Streptococcus sanguinis; 25 μmol/ml): 2.4211
biofilm OD 630 nm divided by control (biofilm growth) (Streptococcus salivarius; 5 μmol/ml): 3.1530
biofilm OD 630 nm divided by control (biofilm growth) (Streptococcus salivarius; 10 μmol/ml): 5.6484
biofilm OD 630 nm divided by control (biofilm growth) (Streptococcus salivarius; 20 μmol/ml): 18.9267
biofilm OD 630 nm divided by control (biofilm growth) (Streptococcus salivarius; 25 μmol/ml): 20.1333
biofilm OD 630 nm divided by control (biofilm growth) (Actinomyces naeslundii; 5 μmol/ml): 0.9907
biofilm OD 630 nm divided by control (biofilm growth) (Actinomyces naeslundii; 10 μmol/ml): 0.9316
biofilm OD 630 nm divided by control (biofilm growth) (Actinomyces naeslundii; 20 μmol/ml): 0.9697
biofilm OD 630 nm divided by control (biofilm growth) (Actinomyces naeslundii; 25 μmol/ml): 0.9727

CO[C@H]1O[C@H](CO)[C@H](O)[C@H](O)[C@H]1O [α-methyl-D-galactoside]
biofilm OD 630 nm divided by control (biofilm growth) (Prevotella intermedia; 5 μmol/ml): 1.1518
biofilm OD 630 nm divided by control (biofilm growth) (Prevotella intermedia; 10 μmol/ml): 1.1589
biofilm OD 630 nm divided by control (biofilm growth) (Prevotella intermedia; 20 μmol/ml): 1.0758
biofilm OD 630 nm divided by control (biofilm growth) (Prevotella intermedia; 25 μmol/ml): 0.9774
biofilm OD 630 nm divided by control (biofilm growth) (Streptococcus mutans; 5 μmol/ml): 1.2046
biofilm OD 630 nm divided by control (biofilm growth) (Streptococcus mutans; 10 μmol/ml): 1.3284
biofilm OD 630 nm divided by control (biofilm growth) (Streptococcus mutans; 20 μmol/ml): 1.5452
biofilm OD 630 nm divided by control (biofilm growth) (Streptococcus mutans; 25 μmol/ml): 1.7240
biofilm OD 630 nm divided by control (biofilm growth) (Porphyromonas gingivalis; 5 μmol/ml): 0.9047
biofilm OD 630 nm divided by control (biofilm growth) (Porphyromonas gingivalis; 10 μmol/ml): 0.9772
biofilm OD 630 nm divided by control (biofilm growth) (Porphyromonas gingivalis; 20 μmol/ml): 0.9820
biofilm OD 630 nm divided by control (biofilm growth) (Porphyromonas gingivalis; 25 μmol/ml): 1.0029
biofilm OD 630 nm divided by control (biofilm growth) (Streptococcus mitis; 5 μmol/ml): 1.4898
biofilm OD 630 nm divided by control (biofilm growth) (Streptococcus mitis; 10 μmol/ml): 1.2441
biofilm OD 630 nm divided by control (biofilm growth) (Streptococcus mitis; 20 μmol/ml): 1.3917
biofilm OD 630 nm divided by control (biofilm growth) (Streptococcus mitis; 25 μmol/ml): 1.2800
biofilm OD 630 nm divided by control (biofilm growth) (Actinomyces viscosus; 5 μmol/ml): 0.7268
biofilm OD 630 nm divided by control (biofilm growth) (Actinomyces viscosus; 10 μmol/ml): 0.7293
biofilm OD 630 nm divided by control (biofilm growth) (Actinomyces viscosus; 20 μmol/ml): 0.7490
biofilm OD 630 nm divided by control (biofilm growth) (Actinomyces viscosus; 25 μmol/ml): 0.6777
biofilm OD 630 nm divided by control (biofilm growth) (Capnocytophaga sputigena; 5 μmol/ml): 0.9689
biofilm OD 630 nm divided by control (biofilm growth) (Capnocytophaga sputigena; 10 μmol/ml): 1.0025
biofilm OD 630 nm divided by control (biofilm growth) (Capnocytophaga sputigena; 20 μmol/ml): 1.1142
biofilm OD 630 nm divided by control (biofilm growth) (Capnocytophaga sputigena; 25 μmol/ml): 0.9669
biofilm OD 630 nm divided by control (biofilm growth) (Streptococcus gordonii; 5 μmol/ml): 0.6940
biofilm OD 630 nm divided by control (biofilm growth) (Streptococcus gordonii; 10 μmol/ml): 0.6458
biofilm OD 630 nm divided by control (biofilm growth) (Streptococcus gordonii; 20 μmol/ml): 0.6465
biofilm OD 630 nm divided by control (biofilm growth) (Streptococcus gordonii; 25 μmol/ml): 0.6859
biofilm OD 630 nm divided by control (biofilm growth) ([1]; 5 μmol/ml): 0.9911
biofilm OD 630 nm divided by control (biofilm growth) ([1]; 10 μmol/ml): 0.9943
biofilm OD 630 nm divided by control (biofilm growth) ([1]; 20 μmol/ml): 1.1846
biofilm OD 630 nm divided by control (biofilm growth) ([1]; 25 μmol/ml): 1.1720
biofilm OD 630 nm divided by control (biofilm growth) (Tannerella forsythia; 5 μmol/ml): 0.7627
biofilm OD 630 nm divided by control (biofilm growth) (Tannerella forsythia; 10 μmol/ml): 1.0506
biofilm OD 630 nm divided by control (biofilm growth) (Tannerella forsythia; 20 μmol/ml): 0.8302
biofilm OD 630 nm divided by control (biofilm growth) (Tannerella forsythia; 25 μmol/ml): 1.0929
biofilm OD 630 nm divided by control (biofilm growth) (Veillonella parvula; 5 μmol/ml): 1.0323
biofilm OD 630 nm divided by control (biofilm growth) (Veillonella parvula; 10 μmol/ml): 1.0615
biofilm OD 630 nm divided by control (biofilm growth) (Veillonella parvula; 20 μmol/ml): 1.0577
biofilm OD 630 nm divided by control (biofilm growth) (Veillonella parvula; 25 μmol/ml): 1.1040
biofilm OD 630 nm divided by control (biofilm growth) (Streptococcus sanguinis; 5 μmol/ml): 2.6029
biofilm OD 630 nm divided by control (biofilm growth) (Streptococcus sanguinis; 10 μmol/ml): 2.4812
biofilm OD 630 nm divided by control (biofilm growth) (Streptococcus sanguinis; 20 μmol/ml): 2.1593
biofilm OD 630 nm divided by control (biofilm growth) (Streptococcus sanguinis; 25 μmol/ml): 2.4656
biofilm OD 630 nm divided by control (biofilm growth) (Streptococcus salivarius; 5 μmol/ml): 0.9165
biofilm OD 630 nm divided by control (biofilm growth) (Streptococcus salivarius; 10 μmol/ml): 0.9115
biofilm OD 630 nm divided by control (biofilm growth) (Streptococcus salivarius; 20 μmol/ml): 1.1202
biofilm OD 630 nm divided by control (biofilm growth) (Streptococcus salivarius; 25 μmol/ml): 0.9258
biofilm OD 630 nm divided by control (biofilm growth) (Actinomyces naeslundii; 5 μmol/ml): 0.9655
biofilm OD 630 nm divided by control (biofilm growth) (Actinomyces naeslundii; 10 μmol/ml): 0.9764
biofilm OD 630 nm divided by control (biofilm growth) (Actinomyces naeslundii; 20 μmol/ml): 0.9692
biofilm OD 630 nm divided by control (biofilm growth) (Actinomyces naeslundii; 25 μmol/ml): 0.9789
